This note sets out measurements from patent publication US20260335323A1, “CHIMERIC MOLECULE” (UCL Business Ltd, priority 2023, published 2026).

For assay [1], the system named is A549 cells. The assay can be described thus: Cell viability assay (CellTiter Glo), A549. Format: cell-based, human. The settings on record: A549, increasing concentrations. The protocol: A549 and H1299 cells were seeded in OptiPlate-384 well plates and treated with increasing concentrations of (+)-JQ1 or NZ-147 from 0 μM to 10 µM in Example 8 and with increasing concentrations of NZ-175 from 0 µM to 10 µM in Example 9. Cells were treated for 120 h before using the luciferase based CellTiter Glo assay (Promega) to measure cell viability.
Cell viability assay was performed in A549 and H1299 cells, which were treated with different concentrations of (+)-JQ1 or NZ-147 at 100 nM for 72 hours (FIG. 10B).
Cell viability assay was performed in A549 and H1299 cells, which were treated with different concentrations of NZ-147 at 100 nM for 72 hours (FIG. 16B).
In general terms: In ATP-based viability assays light output follows the ATP content of the culture.

The test system of a further assay is c-MYC. The assay can be described thus: Western blot, c-MYC levels in CAL51 cells. In kind it is cell-based, human. The settings on record: 100 nM, 72 hours. The protocol: (§1) All treatments with (+)-JQ1, NZ-147 or NZ-175 were performed at 100 nM concentration over 72 hours.
(§2) Cells were homogenised in protein lysis buffer consisting of 0.1 M Tris pH 8.0, 0.1 M NaCl, 5% glycerol, IGEPAL® CA-630 (#18896. Sigma-Aldrich) and 5 mM EDTA, 0.1 M N-ethyl maleimide (ThermoFisher, #23030) and protease inhibitor (Cell Signalling Technologies, #5871). Protein concentrations were determined using the BCA assay to ensure equal loading. […] The membranes were immunoblotted with primary antibodies, overnight at 4° C. […]
(§3) Membranes were then incubated with horseradish peroxidase (HRP)-conjugated secondary antibodies (Rabbit #7074 and Mouse #7076) purchased from Cell Signalling Technologies for 1 hour and the HRP signal was detected using EZ-ECL Enhanced Chemiluminescence Detection Kit for HRP (#20-500-500, Sartorius), and imaged with an Alliance Q9 Advanced (UVITec). […]
(§4) We generated a BRD4-ULKTAC (NZ-147) by conjugating (+)-JQ1 (BRD4-targeting moiety) to NZ-60 via a PEG linker (FIG. 8A). CAL51 cells (a triple negative breast cancer cell line) were treated with DMSO, (+)-JQ1 or NZ-147 at 100 nM for 72 hours then lysed and analysed by Western blot (FIG. 8B). […]

Assay [2] has as its system A549 cells. Briefly: Colony formation assay, A549. Particulars: A549, 100 nM, 72 hours. Format: cell-based, human. Here is the method:
(§5) A549 and H1299 cells were seeded in 12 well plates at approximately 100 cells per well. In Example 8, wells were treated with DMSO, (+)-JQ1 or NZ-147. In Example 9, cells were treated with DMSO or NZ-175. Colonies were allowed to form over 120 h. Cells were fixed and stained with crystal violet staining solution, prepared in 70% ethanol.
(§6) A colony formation assay was performed in A549 and H1299 cells, which were treated with DMSO, (+)-JQ1 or NZ-147 at 100 nM for 72 hours and stained with crystal violet (FIG. 10A).
(§7) A colony formation assay was performed in A549 and H1299 cells, which were treated with DMSO or NZ-175 at 100 nM for 72 hours and stained with crystal violet (FIG. 16A).

The next assay has as its system H1299 cells. Briefly: Colony formation assay, H1299. In kind it is cell-based, human. The protocol: as §5, §6, §7
The next assay deals with T1, BRD4 (Homo sapiens, UniProt O60885).
T1 construct: Western blot (antibody CST #13440)
The assay can be described thus: Western blot, BRD4 levels in CAL51 cells. The settings on record: 100 nM, 72 hours. In kind it is cell-based. Here is the method:
as §1, §2, §3, §4

For a further assay, the system named is MAX. Briefly: Western blot, MAX levels in CAL51 cells. In kind it is cell-based, human. Particulars: 100 nM, 72 hours. Here is the method:
as §1, §2, §3, §4

For `Cc1sc2c(c1C)C(c1ccc(Cl)cc1)=N[C@@H](CC(=O)NCCOCCOCCOCCn1cc(COc3ccc([C@@H](NC(=O)Nc4cc(C(F)(F)F)cc(C(F)(F)F)c4)C(=O)Nc4ccc(F)cc4F)cc3)nn1)c1nnc(C)n1-2` [NZ-147, (R)-2-(3-(3,5-bis(trifluoromethyl)phenyl)ureido)-2-(4-((1-(1-((S)-4-(4-chlorophenyl)-2,3,9-trimethyl-6H-thieno[3,2-f][1,2,4]triazolo[4,3-a][1,4]diazepin-6-yl)-2-oxo-6,9, 12-trioxa-3-azatetradecan-14-yl)-1H-1,2,3-triazol-4-yl)methoxy)phenyl)-N-(2,4-difluorophenyl) acetamide], in the assay with A549 cells [1], the “percentage of live cells” value was “dose-dependent decrease in the percentage of live cells”. Moreover, in the assay on c-MYC, the “levels of c-MYC” value is reported as “reduced”. The colony formation entry with A549 cells [2] is “Fewest colonies formed”; in the assay on H1299 cells (H1299, 100 nM, 72 hours) it was “Fewest colonies formed”. Further, in the assay on H1299 cells (c-MYC-amplified cell line H1299), the cell proliferation entry is given as “reduced cell proliferation, exemplified further in the c-MYC-amplified cell line H1299”. The “levels of BRD4” value at BRD4 was “reduced”. Also, in the assay on MAX, the “levels of MAX” value is recorded as “reduced”.
